The experiment deals with T1, aurora A kinase (Homo sapiens, UniProt O14965).
T1 sequence (O14965 1-403): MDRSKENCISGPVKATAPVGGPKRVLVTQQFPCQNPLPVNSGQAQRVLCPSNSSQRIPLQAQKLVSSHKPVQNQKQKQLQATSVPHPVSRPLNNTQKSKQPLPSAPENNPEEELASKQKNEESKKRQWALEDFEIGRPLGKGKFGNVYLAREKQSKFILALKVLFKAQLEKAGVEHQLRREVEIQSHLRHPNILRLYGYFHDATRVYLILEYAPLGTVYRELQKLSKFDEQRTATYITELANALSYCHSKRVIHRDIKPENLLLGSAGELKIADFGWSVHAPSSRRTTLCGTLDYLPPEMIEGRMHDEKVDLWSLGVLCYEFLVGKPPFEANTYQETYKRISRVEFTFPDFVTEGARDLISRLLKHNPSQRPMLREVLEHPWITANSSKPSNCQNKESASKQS
As to the kind of experiment: Aurora A in vitro kinase assay (ELISA). In kind it is biochemical. The note with it: 30 μM ATP, 45 minutes. On the procedure:
Kinase activities were measured by Enzyme-Linked Immunosorbent Assay (ELISA): Maxisorp 384-well plates (Nunc) were coated with recombinant fusion protein comprising residues 1-15 of Histone H3 fused to the N-terminus of Glutathione-S-Transferase. Plates were then blocked with a solution of 1 mg/mL I-block (Tropix Inc) in phosphate-buffered saline. Kinase reactions were carried out in the wells of the ELISA plate by combining an appropriate amount of Aur A and B kinases and/or mutants thereof with test compound and 30 μM ATP. The reaction buffer was 1× Kinase Buffer (Cell Signaling Technologies) supplemented with 1 μg/mL I-block. Reactions were stopped after 45 minutes by addition of 25 mM EDTA. After washing, susbstrate phosphorylation was detected by addition of anti-phospho-Histone H3 (Ser 10) 6G3 mAb (Cell Signaling cat #9706) and sheep anti-mouse pAb-HRP (Amersham cat# NA931V), followed by colorimetric development with TMB.
On the technique in general: In an ELISA, binding on a coated surface is turned into a signal by an enzyme label.

Each structure is given as a SMILES string.

Usually IC50 stands for the concentration that inhibits the measured activity by half. A lower IC50 goes with greater potency in that assay. Regarding `O=C(Nc1ccccc1Nc1nc(Nc2ccc(N3CCOCC3)cc2)ncc1Cl)c1ccccc1` [compound 67], the IC50 was 18.1 nM.

`Nc1ccccc1Oc1nc(Nc2ccc(N3CCS(=O)(=O)CC3)cc2)ncc1Cl` [compound 83]: 5 nM corresponded to half-maximal inhibition (IC50). Against the preceding compound, the IC50 is about 3.6-fold lower.

On to `O=C(Nc1ccccc1Nc1nc(Nc2ccc(-n3cccc3)cc2)ncc1Cl)C1CC1` [compound 53], for which half-maximal inhibition (IC50) required 6.4 nM. The IC50 values of the last two compounds are within 1.5-fold of each other.

Compound `CN(C)CCNC(=O)c1ccc(Nc2ncc(Cl)c(Nc3ccccc3NC(=O)C3CC3)n2)cc1` [compound 9] displayed a half-inhibitory concentration (IC50) of 2.5 nM.

On to `N#Cc1ccc(Nc2ncc(Cl)c(Nc3ccccc3NC(=O)C3CC3)n2)cc1` [compound 32], for which the IC50 turned out to be 1.3 nM.

`O=C(/C=C/c1ccccc1)Nc1ccccc1Nc1nc(Nc2ccc(N3CCOCC3)cc2)ncc1Cl` [compound 63]: the IC50 turned out to be 4.4 nM.

`CC(C)(C)C(=O)Nc1ccccc1Nc1nc(Nc2ccc(N3CCOCC3)cc2)ncc1Cl` [compound 77]: the IC50 was found to be 4.2 nM.

`O=C(Nc1ccccc1Nc1nc(Nc2ccc(C(=O)N3CCC(O)(Cc4ccccc4)CC3)cc2)ncc1Cl)C1CC1` [compound 44] had a half-maximal inhibitory concentration (IC50) of 1.8 nM.

As to `O=C(Nc1ccccc1Nc1nc(Nc2ccc(N3CCOCC3)cc2)ncc1F)C1CC1` [compound 111], the IC50 worked out at 5 nM.

With `CC(C)(C)C1CCC(NC(=O)c2ccc(Nc3ncc(Cl)c(Nc4ccccc4NC(=O)C4CC4)n3)cc2)CC1` (centres unmarked) [compound 40], half-maximal inhibition (IC50) required 12.1 nM.

Regarding `O=C(Nc1ccccc1Nc1nc(Nc2ccc(N3CCOCC3)cc2)ncc1[N+](=O)[O-])C1CC1` [compound 127], inhibition was half-maximal at 10.2 nM (IC50).

On to `O=C(Nc1ccccc1Oc1nc(Nc2ccc(N3CCOCC3)cc2)ncc1Cl)C1CC1` [compound 80], for which the IC50 is 36.3 nM.

Compound `O=C(Nc1ccccc1Nc1nc(Nc2ccc(N3CCOCC3)cc2)ncc1Cl)C1CCCCC1` [compound 75] showed an IC50 of 14.1 nM.

`O=C(NC1CC1)c1ccccc1Nc1nc(Nc2ccc(N3CCOCC3)cc2)ncc1Cl` [compound 85] displayed an IC50 of 4.3 nM.
